Read-outs that look alike come from different tables or passages of the source.
Legend:
[1] = Pharmacokinetic drug-drug interaction of the compound of the formula I and ritonavir in healthy volunteers (single dose, alone and with RTV); assay type: in vivo, human; parameters: CL/F: unit not given here; conditions: for AUC(0-t) / Cmax / Tmax / half-life / AUC: human, plasma
Description: A single-dose, single treatment group was studied to assess the pharmacokinetic drug-drug interaction potential between the protease inhibitors the compound of the formula I and ritonavir. The compound of the formula I was administered as a solution containing 5 or 12.5 mg of the compound of the formula I, with excipients, and ritonavir was administered as the 100-mg marketed product (Norvir) 12 hours preceding and co-administration with the compound of the formula I . Baseline pharmacokinetic data for the compound of the formula I was obtained as single doses up through 100 mg. The co-administered drugs were compared with baseline data. The study was conducted in healthy volunteers Pharmacokinetic analyses were based on the results obtained in these subjects. Pharmacokinetic parameters such as AUC, Cmax, tmax, oral clearance, and terminal half-life were determined using standard noncompartmental techniques.

CYP3A4 = CYP3A4 (Homo sapiens, UniProt P08684); experiment: Metabolism of the compound of the formula I by the cytochromes P450; assay type: in vitro ADME; conditions: result in words
CYP3A4, sequence (P08684 whole entry): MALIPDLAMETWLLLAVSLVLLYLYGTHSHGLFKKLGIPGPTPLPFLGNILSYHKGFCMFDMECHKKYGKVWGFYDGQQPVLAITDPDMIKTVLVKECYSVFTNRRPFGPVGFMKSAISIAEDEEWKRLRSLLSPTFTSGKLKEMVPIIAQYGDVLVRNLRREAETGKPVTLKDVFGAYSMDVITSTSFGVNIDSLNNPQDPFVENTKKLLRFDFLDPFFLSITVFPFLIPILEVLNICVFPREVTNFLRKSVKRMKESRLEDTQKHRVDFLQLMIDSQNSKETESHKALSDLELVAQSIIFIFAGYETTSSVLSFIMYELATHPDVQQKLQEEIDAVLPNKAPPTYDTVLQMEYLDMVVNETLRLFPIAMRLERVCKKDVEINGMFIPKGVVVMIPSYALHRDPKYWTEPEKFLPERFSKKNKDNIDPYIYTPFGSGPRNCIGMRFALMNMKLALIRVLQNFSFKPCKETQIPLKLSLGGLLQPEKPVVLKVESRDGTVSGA

[2] = 12.5 mg oral single dose alone, mean
[3] = 25 mg oral single dose alone, mean
[4] = 50 mg oral single dose alone, mean
[5] = 75 mg oral single dose alone, mean
[6] = 100 mg oral single dose alone, mean
[7] = oral, 5 mg solution + RTV 100 mg, mean
[8] = oral, 5 mg, 5 mg alone (no RTV), mean
[9] = oral, 12.5 mg solution + RTV 100 mg, mean
[10] = oral, 12.5 mg, 12.5 mg alone (no RTV), mean (Table 1)
[11] = po, 12.5 mg, 12.5 mg oral single dose alone, mean (Table 2)
[12] = po, 25 mg, 25 mg oral single dose alone, mean
[13] = po, 50 mg, 50 mg oral single dose alone, mean
[14] = po, 75 mg, 75 mg oral single dose alone, mean
[15] = po, 100 mg, 100 mg oral single dose alone, mean
[16] = with ritonavir 100 mg versus alone

% Renally eliminated as unchanged drug [1, 2]: 0.21%
CL/F [1, 2]: 243495.99
% Renally eliminated as unchanged drug [1, 3]: 0.41%
CL/F [1, 3]: 200752.61
% Renally eliminated as unchanged drug [1, 4]: 0.48%
CL/F [1, 4]: 124815.56
% Renally eliminated as unchanged drug [1, 5]: 0.60%
CL/F [1, 5]: 263277.68
% Renally eliminated as unchanged drug [1, 6]: 0.81%
CL/F [1, 6]: 75634.54
AUC(0-t) ([1]; oral, 5 mg solution + RTV 100 mg (12 h before and co-administered), mean): 578 ng·h/mL
Cmax [1, 7]: 22.8 ng/mL
Tmax [1, 7]: 4 h
half-life ([1]; oral, 5 mg solution + RTV 100 mg, mean, read-out: half-life (converted)): 15.3 h
AUC(0-t) [1, 8]: 13.6 ng·h/mL
Cmax [1, 8]: 3.64 ng/mL
Tmax [1, 8]: 1.5 h
AUC(0-t) ([1]; oral, 12.5 mg solution + RTV 100 mg (12 h before and co-administered), mean): 1700 ng·h/mL
Cmax [1, 9]: 74.1 ng/mL
Tmax [1, 9]: 3.59 h
half-life ([1]; oral, 12.5 mg solution + RTV 100 mg, mean, read-out: half-life (converted)): 15.9 h
AUC(0-t) [1, 10]: 57.1 ng·h/mL
Cmax [1, 10]: 14.8 ng/mL
Tmax [1, 10]: 1 h
half-life ([1]; oral, 12.5 mg, 12.5 mg alone (no RTV), mean (Table 1), read-out: half-life (converted)): 4.1 h
half-life ([1]; oral, co-administration with ritonavir 100 mg, read-out: half-life upon co-administration with ritonavir (converted)): 15 h
half-life ([1]; oral, without ritonavir, single dose range of 1-100 mg, read-out: half-life without ritonavir (converted)): ~2 h
Cmax [1, 11]: 14.8 ng/mL
Tmax [1, 11]: 1 h
half-life ([1]; po, 12.5 mg, 12.5 mg oral single dose alone, mean (Table 2), read-out: Half-life (converted)): 4.1 h
Cmax [1, 12]: 41.6 ng/mL
Tmax [1, 12]: 0.83 h
half-life ([1]; po, 25 mg, 25 mg oral single dose alone, mean, read-out: Half-life (converted)): 3.44 h
Cmax [1, 13]: 164 ng/mL
Tmax [1, 13]: 0.67 h
half-life ([1]; po, 50 mg, 50 mg oral single dose alone, mean, read-out: Half-life (converted)): 2.5 h
Cmax [1, 14]: 348 ng/mL
Tmax [1, 14]: 0.67 h
half-life ([1]; po, 75 mg, 75 mg oral single dose alone, mean, read-out: Half-life (converted)): 2.21 h
Cmax [1, 15]: 937 ng/mL
Tmax [1, 15]: 0.55 h
half-life ([1]; po, 100 mg, 100 mg oral single dose alone, mean, read-out: Half-life (converted)): 1.86 h
AUC ([1]; 12.5 mg oral single dose alone, mean (Table 2)): 63.1 ng·h/mL
AUC [1, 3]: 139 ng·h/mL
AUC [1, 4]: 437 ng·h/mL
AUC [1, 5]: 817 ng·h/mL
AUC [1, 6]: 1390 ng·h/mL
increase of AUC (plasma concentrations as measured by area under the curve) in the presence of ritonavir [1, 16]: ~40 fold
increase of mean Cmax in the presence of ritonavir [1, 16]: 5-6 fold
metabolism by the cytochromes P450, especially the CYP3A4 isoform (CYP3A4): surprisingly rapid metabolism
Compound: CCN1c2ncc(CCOc3cc[n+]([O-])c4ccccc34)cc2C(=O)N(C)c2cccnc21 [the compound of the formula I, 5,11-Dihydro-11-ethyl-5-methyl-8-{2-{(1-oxido-4-quinolinyl)oxy}ethyl}-6H-dipyrido[3,2-b:2′,3′-e] [1,4]diazepin-6-one]
